Key:
splenocytes [1] = experiment: Mitogen (PHA/PMA, PMA/A23187, PHA)-stimulated splenocyte adhesion and proliferation, ex vivo; type: in vivo, mice
Description: (A) β-oxa-21:3n-3 or vehicle was injected intraperitoneally to 5 day SRBC-sensitized mice. After 2 h splenocytes (1×10^6 cells) were cultured in a 24 well tissue culture plate (Nunc, Inc. […] Cells were fixed with 2% Para formaldehyde and inspected under a light microscopy and photographed. (B) β-oxa-21:3n-3 or vehicle was injected intraperitoneally or intravenously to 5 day SRBC-sensitized mice. After 2 h splenocytes (0.2 million) were cultured in a 96 well tissue culture plate (Nunc, Inc. Denmark) in the presence of PHA and PMA (PHA/PMA) or PMA (10 ng/ml) and A23187 ([…]) (PMA/A23187) for 3 days. Thymidine incorporation for final 16 hours of culture was determined. The data represents the mean±SEM of 3 separate experiments each conducted in quintuplets.
(§1) 6-7 weeks old Balb/c mice were injected subcutaneously with 100 μl of 10% sheep red blood cells (IMVS, Inc., Adelaide, Australia) After 5 days 100 ul of β-oxa-21:3n-3 at indicated amounts were injected intraperitoneally, intravenously or gavaged orally. In another experimental set up mice were given β-tha-21:3n-3 i.p. In a third approach mice were infected subcutaneously with 100 μl of Tetanus Toxoid (2,500 Lf/ml). Then 7 days later were given β-oxa-21:3n-3. At indicated time points mice were sacrificed and spleens were removed. Single cell suspensions were prepared and white blood cells (WBC) were enriched by passing through Ficoll-Paque Plus (GE Healthcare). Cells were washed with RPMI-1640 containing 10% fetal bovine serum, 10 mM Hepes, antibiotics and glutamine (RPMI-10) and counted using an automated Cell-Dyne 3500R (Abbott, Inc. MA) instrument. Cells were viable (>98%) as judged by trypan blue exclusion. (β-oxa-21:3n-3)- or vehicle-treated mouse samples (200,000/well) were mixed either with SRBC (600,000/well) with 100 μl of Tetanus toxoid (50 Lf/ml) or phytohaemaglutinin (PHA) (2 μg/ml) or with PHA plus phorbol myristate acetate (PMA) (10 ng/ml) or with PMA plus calcium ionophore A23187 ([…]). Cells were cultured in 96 well U bottom plates (Nunc, Inc. Denmark) for 3 days (except for TT −5 days) at 37° C. under humidified air containing 5% CO2. At some instances 50 μl of supernatants were transferred to a new plate and frozen immediately at −70° C. to be used for cytokine measurements. Thymidine (50 μl, 1 μCi/well) was added at final 16 hours of culture. Cells were harvested and thymidine incorporation was determined using a beta scintillation counter.
To assess whether or not the immunosuppression observed was restricted to antigen-dependent stimulation, we explored the effect of β-oxa-21:3n-3 on mitogen-induced splenocyte adhesion and proliferation. […] The cells were cultured for 3 days and the extent of proliferation was assessed by thymidine incorporation.

splenocytes [2] = experiment: Ex-vivo antigen (SRBC)-dependent splenocyte proliferation after administration to SRBC-immunized mice (thymidine incorporation); type: in vivo, Balb/c mice
Description: Mice were immunized with SRBC for 5 days. β-oxa-21:3n-3 was delivered in DMSO and injected intraperitoneally at the indicated doses. After 2 h spleens were removed and single cell suspensions were prepared. The splenocytes were cultured for 3 days in the presence (□), or absence (▪) of SRBC. Thymidine incorporation for final 16 hours of culture was determined. The data is expressed as mean±SEM of 3 separate experiments each in triplicate.
Mice were immunized with SRBC for 5 days. Then β-oxa-21:3n-3 dissolved in syngeneic mouse serum and injected intraperitoneally (A), intravenously (B) or gavaged/orally (C) at the indicated concentrations. After 2 h spleens were removed, single cell suspensions prepared and the splenocytes cultured for 3 days in the presence (▪), or absence (□) of SRBC. Thymidine incorporation for final 16 hours of culture was determined. The data is presented as the mean±SEM of 3 separate experiments separate experiments, each in quintuplets.
Mice were immunized with SRBC. After 5 days they were given β-thia-21:3n-3 at the indicated doses i.p. After 2 hours the spleens were removed and processed into single cell suppressions. These were then cultured in the presence (□), or absence of (▪) of SRBC to assess the proliferation. The results are expressed as mean±SEM of 3 experiments. (B) Effect of β-oxa-21:3n-3 on tetanus toxoid (TT)-induced ex vivo lymphocyte responses. Mice were immunized with TT subcutaneously and after 7 days were given β-oxa-21:3n-3 in mouse serum, intraperitoneally. Two hours later the spleen removed, single cell suspension prepared and examined for lymphoproliferation responses to TT in 5 day cultures. The results are expressed as mean±SEM of 3 experiments.
as §1

[3] = tested on: circulating cytokine levels; experiment: Circulating cytokine levels in SRBC-sensitized mice after intravenous SRBC challenge; type: in vivo; conditions: serum, 80 mg/kg IP, 6 h after IV SRBC
Description: Mice were injected subcutaneously with SRBC. After 5 days β-oxa-21:3n-3 (80 mg/kg) or vehicle (whole mouse serum) were injected intraperitoneally. 2 hours later SRBC were injected intravenously. The blood was collected from orbital plexus at 6 hours post intravenous SRBC injection. Serum was separated and frozen immediately at −70° C. The levels of cytokine were measured using BD mouse CBA kits using a BD Array instrument (BD, La Jolla, Calif.).
The insights from these cytokine studies prompted us to investigate whether injected β-oxa-21:3n-3 could regulate cytokine levels in vivo. The β-oxa-21:3n-3- or vehicle-administered pre-immune animals were challenged intravenously with SRBC; after 6 h the serum prepared from the mouse blood and cytokine levels measured.

[4] = IP- or IV-administered, 3 days culture, thymidine incorporation

CC/C=C\C/C=C\C/C=C\CCCCCCCCOCC(=O)O [β-oxa-21:3n-3]
splenocyte proliferation in response to PHA-PMA (splenocytes [1]; [4]): not affected in their responsiveness
splenocyte proliferation in response to PMA-A23187 (splenocytes [1]; [4]): not affected in their responsiveness
splenocyte adherence (splenocytes [1]; PHA and PMA stimulation for 4 h, SRBC pre-sensitized mice): not affected
splenocyte proliferation in response to PHA alone (splenocytes [1]; not shown): did not affect
inhibition of splenocyte proliferation, duration of effect (splenocytes [2]; ex-vivo SRBC challenge 1, 2 and 6 days after single administration (80 mg/kg IP)): significant inhibition
antigen-dependent splenocyte proliferation (splenocytes [2]; intravenous, in syngeneic mouse serum, compared with IP): even more pronounced
antigen-dependent proliferation of splenocytes (splenocytes [2]; orally administered (gavage), in mouse serum): significantly depressed
antigen-dependent proliferation of splenic lymphocytes, ex-vivo (splenocytes [2]; single IP injection in 7% DMSO, 2 h, SRBC pre-sensitized mice): dose-dependent inhibition
IFNγ conc [3]: 229 ± 40 pg/mL
IL-2 conc [3]: 73 ± 10 pg/mL
IL-4 conc [3]: 3.5 ± 2 pg/mL
IL-5 conc [3]: 120 ± 21 pg/mL
IL-6 conc [3]: 35 ± 8 pg/mL
IL-10 conc [3]: 9 ± 5 pg/mL
IL-12 conc [3]: 320 ± 145 pg/mL
IL-13 conc [3]: 0 ± 0 pg/mL
KC conc [3]: 61 ± 21 pg/mL
MCP-1 conc [3]: 2039 ± 457 pg/mL
TNFα conc [3]: 15 ± 3 pg/mL
